Data as given in DBAASP.
In brackets after ≈: the same amount, converted by molar mass. Blank lines part the entries; values can stand above or below the compound they belong to.

What was measured:
Assay in all cases: ≥ marks a high value that may be exact or a test limit, other limits are often not marked, values filed in µg/mL are converted to µM
[1] = tested on: Staphylococcus aureus ATCC 15752
[2] = tested on: Saccharomyces cerevisiae ATCC 44774
[3] = tested on: Escherichia coli ATCC 27325
[4] = tested on: Candida albicans ATCC 10231
[5] = tested on: Salmonella enterica subsp. enterica serovar Enteritidis ATCC 13076
[6] = tested on: Streptococcus mutans ATCC 25175
[7] = tested on: Cryptococcus neoformans ATCC 34881
[8] = tested on: Bacillus subtilis ATCC 62037
[9] = tested on: Pseudomonas putida ATCC 17426
[10] = tested on: Aspergillus fumigatus KCTC 4165
[11] = tested on: Streptococcus pyogenes KCTC 3096
[12] = tested on: Salmonella typhimurium KCTC 1926
[13] = tested on: Bacillus subtilis KCTC 1918
[14] = tested on: Staphylococcus aureus KCTC 1621
[15] = tested on: Pseudomonas aeruginosa KCTC 1637
[16] = tested on: Candida albicans TIMM 1768
[17] = tested on: Escherichia coli KCTC 1682
[18] = tested on: Micrococcus luteus ATCC 10240
[19] = tested on: Staphylococcus aureus ATCC 6538P
[20] = tested on: Pseudomonas aeruginosa ATCC 27853
[21] = tested on: Bacillus subtilis ATCC 6633
[22] = tested on: Staphylococcus epidermidis ATCC 12228
[23] = tested on: Shigella dysenteriae ATCC 9752
[24] = tested on: Staphylococcus aureus TK784
[25] = tested on: Salmonella enterica subsp. enterica serovar Typhimurium ATCC 14028
[26] = tested on: Escherichia coli ATCC 25922
[27] = tested on: Klebsiella pneumoniae ATCC 10031
Escherichia coli 1103 = tested on: Escherichia coli 1103
Escherichia coli BL21AI = tested on: Escherichia coli BL21AI
[28] = tested on: Klebsiella pneumoniae DSM 681
[29] = tested on: Bacillus subtilis DSM 347
[30] = tested on: Escherichia coli DSM 10233
[31] = tested on: Trypanosoma brucei brucei GUT Tat3.1
Pseudomonas aeruginosa = tested on: Pseudomonas aeruginosa
[32] = tested on: Trichophyton mentagrophytes IFO 5466
[33] = tested on: Staphylococcus aureus KO-4
[34] = tested on: Pseudomonas aeruginosa CCARM 2109
[35] = tested on: Bacillus subtilis KCTC 3068
[36] = tested on: Staphylococcus aureus CCARM 3001
[37] = tested on: Staphylococcus aureus CCARM 3543
[38] = tested on: Pseudomonas aeruginosa CCARM 2095
[39] = tested on: Staphylococcus epidermidis KCTC 1917

Structure (SMILES): CC(C)[C@H](NC(=O)[C@H](CCCCN)NC(=O)CNC(=O)CNC(=O)[C@H](CCC(N)=O)NC(=O)[C@H](CCCCN)NC(=O)CNC(=O)[C@H](CCCN=C(N)N)NC(=O)CNC(=O)[C@H](C)N)C(=O)N[C@@H](CCCN=C(N)N)C(=O)N[C@@H](C)C(=O)N[C@@H](CCCCN)C(=O)N[C@@H](C)C(=O)N[C@@H](CCCCN)C(=O)N[C@H](C(=O)N[C@@H](CCCN=C(N)N)C(=O)N[C@@H](CO)C(=O)N[C@@H](CO)C(=O)O)[C@@H](C)O [AGRGKQGGKVRAKAKTRSS]
- MIC [1]: 8.23 µM (≈ 16 µg/mL)
- MIC [2]: 4.12 µM (≈ 8 µg/mL)
- MIC [3]: 2.06 µM (≈ 4 µg/mL)
- MIC [4]: 8.23 µM (≈ 16 µg/mL)
- MIC [5]: 8.23 µM (≈ 16 µg/mL)
- MIC [6]: 8.23 µM (≈ 16 µg/mL)
- MIC [7]: 4.12 µM (≈ 8 µg/mL)
- MIC [8]: 4.12 µM (≈ 8 µg/mL)
- MIC [9]: 2.06 µM (≈ 4 µg/mL)

Structure (SMILES): CC[C@H](C)[C@H](NC(=O)[C@H](CCCCN)NC(=O)[C@H](CCCCN)NC(=O)[C@H](CC(C)C)NC(=O)[C@H](CCCCN)NC(=O)[C@H](CCC(=O)O)NC(=O)CN)C(=O)NCC(=O)N[C@@H](CCCCN)C(=O)N[C@@H](CCCCN)C(=O)N[C@H](C(=O)N[C@@H](CCCCN)C(=O)N[C@@H](CC(N)=O)C(=O)N[C@@H](Cc1ccccc1)C(=O)N[C@@H](Cc1ccccc1)C(=O)N[C@@H](CCC(N)=O)C(=O)N[C@@H](CCCCN)C(=O)N[C@@H](CC(C)C)C(=O)O)[C@@H](C)CC [GEKLKKIGKKIKNFFQKL]
- MIC [10]: 25 µM (≈ 53.7 µg/mL)
- MIC [11]: 25 µM (≈ 53.7 µg/mL)
- MIC [12]: 6.25 µM (≈ 13.4 µg/mL)
- MIC [13]: 12.5 µM (≈ 26.8 µg/mL)
- MIC [14]: 12.5 µM (≈ 26.8 µg/mL)
- MIC [15]: 3.12 µM (≈ 6.7 µg/mL)
- MIC [16]: 25 µM (≈ 53.7 µg/mL)
- MIC [17]: 12.5 µM (≈ 26.8 µg/mL)

Structure (SMILES): CC(C)C[C@H](NC(=O)[C@H](Cc1c[nH]c2ccccc12)NC(=O)[C@H](CCCCN)NC(=O)[C@H](CCCCN)NC(=O)[C@H](CC(C)C)NC(=O)[C@H](Cc1c[nH]c2ccccc12)NC(=O)[C@H](CCCCN)NC(=O)[C@H](CCCCN)NC(=O)[C@@H](N)CC(C)C)C(=O)N[C@@H](CCCCN)C(=O)N[C@@H](CCCCN)C(N)=O [LKKWLKKWLKK]
- MIC [18]: 26.7 µM (≈ 40 µg/mL)
- MIC [19]: 6.67 µM (≈ 9.99 µg/mL)
- MIC [20]: 26.7 µM (≈ 40 µg/mL)
- MIC [21]: 13.3 µM (≈ 20 µg/mL)
- MIC [22]: 26.7 µM (≈ 40 µg/mL)
- MIC [23]: ≥ 53.4 µM
- MIC [24]: ≥ 53.4 µM
- MIC [25]: > 53.4 µM
- MIC [26]: 13.3 µM (≈ 20 µg/mL)
- MIC [27]: ≥ 53.4 µM

Structure (SMILES): CC[C@H](C)[C@H](NC(=O)[C@@H]1CCCN1C(=O)[C@H](CCC(N)=O)NC(=O)[C@@H]1CCCN1C(=O)[C@H](CCCN=C(N)N)NC(=O)[C@@H]1CCCN1C(=O)[C@@H]1CCCN1C(=O)[C@H](Cc1cnc[nH]1)NC(=O)[C@@H]1CCCN1C(=O)[C@H](CCCN=C(N)N)NC(=O)[C@@H](N)CC(C)C)C(=O)N[C@@H](Cc1ccc(O)cc1)C(=O)N[C@H](C(=O)N1CCC[C@H]1C(=O)N[C@@H](CCCN=C(N)N)C(=O)N[C@@H](CC(N)=O)C(=O)N[C@@H](CC(N)=O)C(=O)NCC(N)=O)C(C)C [LRPHPPRPQPIYVPRNNG]
- MIC [18]: ≥ 59.3 µM
- MIC (Escherichia coli 1103): ≥ 59.3 µM
- MIC (Escherichia coli BL21AI): ≥ 59.3 µM
- MIC [28]: ≥ 59.3 µM
- MIC [29]: ≥ 59.3 µM
- MIC [30]: ≥ 59.3 µM

Next, values leading:

- MIC [31]: ≥ 205 µM
- MIC (Pseudomonas aeruginosa): 333 µM (≈ 400 µg/mL)
- MIC [32]: 20.8 µM (≈ 25 µg/mL)
- MIC [33]: ≥ 499 µM
Structure (SMILES): CC[C@H](C)[C@H](NC(=O)[C@H](CCCN=C(N)N)NC(=O)[C@H](CC(C)C)NC(=O)[C@H](Cc1ccc(O)cc1)NC(=O)[C@H](CC(C)C)NC(=O)[C@@H](N)CCCN=C(N)N)C(=O)NCC(=O)N[C@@H](CCCN=C(N)N)C(=O)N[C@@H](CCCN=C(N)N)C(N)=O [RLYLRIGRR]

- MIC [34]: 16 µM (≈ 29.2 µg/mL)
- MIC [35]: 4 µM (≈ 7.3 µg/mL)
- MIC [12]: 4 µM (≈ 7.3 µg/mL)
- MIC [36]: 8 µM (≈ 14.6 µg/mL)
- MIC [37]: 4 µM (≈ 7.3 µg/mL)
- MIC [14]: 8 µM (≈ 14.6 µg/mL)
- MIC [15]: 8 µM (≈ 14.6 µg/mL)
- MIC [38]: 16 µM (≈ 29.2 µg/mL)
- MIC [39]: 2 µM (≈ 3.65 µg/mL)
- MIC [17]: 8 µM (≈ 14.6 µg/mL)
Structure (SMILES): NC(=O)[C@H](CCCN=C(N)N)NC(=O)[C@H](CCCN=C(N)N)NC(=O)[C@H](Cc1c[nH]c2ccccc12)NC(=O)[C@H](CCCN=C(N)N)NC(=O)[C@H](CCCN=C(N)N)NC(=O)[C@H](Cc1c[nH]c2ccccc12)NC(=O)[C@H](CCCN=C(N)N)NC(=O)[C@H](CCCN=C(N)N)NC(=O)[C@H](Cc1c[nH]c2ccccc12)NC(=O)[C@H](CCCN=C(N)N)NC(=O)[C@@H](N)CCCN=C(N)N [RRWRRWRRWRR]
